Marks after values point to notes of the source that are not given here.
Tests used:
[1] = tested on: Human monocyte-derived macrophages; experiment: Cytokine release from LPS/IFN-γ stimulated human monocyte-derived macrophages (multiplex immunoassay); format: cell-based
Protocol: Human monocyte-derived macrophages were stimulated with lipopolysaccharide (LPS) and interferon gamma (IFN-γ) in the presence and absence of CR845 or interleukin-10 (IL-10; 10 ng/mL). Cytokine release in the 18-hour supernatants was measured by multiplex immunoassay (N=4 donors per condition, with assays run in triplicate), with results expressed as mean cytokine release (± SEM) following stimulation with LPS and IFN-γ. […] The minimum effective concentration was 2.0 nM, which was the lowest concentration tested (see Table 1).
Statistical comparisons: *, P<0.05; **, P<0.01; ***, P<0.001 compared with LPS/IFN-γ alone; ##, P<0.001 compared with LPS/IFN-γ + CR845 at 50 nM §, P<0.05 compared with LPS/IFN-γ + CR845 at 50 nM; ¶, P<0.005 compared with LPS/IFN-γ; ¶¶, P<0.001 compared with LPS/IFN-γ

[2] = tested on: LPS-Induced Cytokine Release; experiment: LPS-induced cytokine release in mice (Luminex); format: in vivo, female Balb/c mice; details: 30 min before LPS 1 mg/kg IP, serum 2 hr post-LPS
Description: Data were summarized as percent reduction from vehicle-treated controls (n = 8/group). (*p<0.05 vs. vehicle; unpaired t-test).

[3] = tested on: carrageenan-induced paw swelling; experiment: Carrageenan-induced paw edema in rats; format: in vivo, male SD rats
Protocol: FIG. 6: Intravenous CR845 Produces Dose-Dependent Inhibition of Carrageenan-Induced Paw Edema Formation in Rats: Chart showing paw volume after administration of vehicle alone, or vehicle plus 0.1, 0.3 or 1.0 mg/kg CR845.
In a rat model of inflammatory disease, intraplantar injection of carrageenan in one hind paw is commonly used to produce acute inflammation, resulting in the swelling of the inoculated paw (Stein, Millan et al. 1988). Animals were administered CR845 IV (tail vein, 1 mL/kg) 30 min prior to intraplantar carrageenan administration (100 µL 2% carrageenan into left hind paw; n=6/group). Paw volumes were assessed 3.5 hr post treatment (i.e., 3 hr post-carrageenan injection).

[4] = tested on: LPS-induced TNF release; experiment: LPS-induced serum TNF-alpha in mice (ELISA); format: in vivo, female Balb/c mice; details: 3 and 10 mg/kg SC, 30 min before LPS 1 mg/kg IP, serum 2 hours post-LPS
Protocol: FIG. 5 Reduction in LPS-induced TNF release in Mice Pretreated with SC CR845 at 1, 3 and 10 mg/kg; and separately showing a comparison of the effect of prednisone as compared with vehicle alone.
Thirty minutes later, mice were injected IP with the bacterial lipopolysaccharide (LPS, 1 mg/kg) and serum samples collected 2 hours post-LPS treatment (n = 8/group). TNF-alpha levels in serum were determined by ELISA.

[5] = tested on: human rheumatoid arthritis (RA) synoviocytes; experiment: TNF-alpha release from human rheumatoid arthritis synoviocytes stimulated with interferon-gamma and anti-CD40 antibody; details: 48 hour period
Protocol: Concentrations of TNF-alpha are then measured in tissue culture supernatants by multiplex immunoassay.

[6] = LPS/IFNγ stimulated, CR845 50 nM, 18-hour supernatant, mean (SEM)
[7] = LPS/IFNγ stimulated, nor-BNI 10 nM alone, mean (SEM)

With `CC(C)C[C@@H](NC(=O)[C@@H](Cc1ccccc1)NC(=O)[C@H](N)Cc1ccccc1)C(=O)N[C@H](CCCCN)C(=O)N1CCC(N)(C(=O)O)CC1` [CR845, D-Phe-D-Phe-D-Leu-D-Lys-[ω(4-aminopiperidine-4carboxylic acid)]-OH] as the molecule, how does the IL-6 release ([1]; LPS/IFNγ stimulated, CR845 10 nM, 18-hour supernatant, mean (SEM)) read?
Its IL-6 release is 398.0 (108.4) pg/mL.

And the IL-6 release [1, 6]?
The IL-6 release was 563.7 (53.9) pg/mL.

What about the IL-8 release [1, 6] of the same molecule?
The IL-8 release was 1211 (56.7) pg/mL.

And the “minimum effective concentration for reduction of cytokine secretion” value ([1]; lowest concentration tested)?
The value was 2.0 nM.

And the “secretion of TNF, IL-1β, IL-6, IL-8 and GCSF following stimulation with LPS and IFN-γ” value ([1]; primary human macrophages, vs. vehicle)?
Its value is “significantly reduced”.

What about the “GM-CSF % Inhibition” value ([2]; CR845 10 mg/kg SC) of the same molecule?
Its value is 7%.

And the “IL-1α % Inhibition” value ([2]; CR845 10 mg/kg SC)?
The value was -37%.

What about the “IL-1β % Inhibition” value ([2]; CR845 10 mg/kg SC) of the same molecule?
The value was 26* %.

What about the “IL-2 % Inhibition” value ([2]; CR845 10 mg/kg SC) of the same molecule?
Its value is 23* %.

What about the “IL-4 % Inhibition” value ([2]; CR845 10 mg/kg SC) of the same molecule?
The value was 21%.

What about the “IL-6 % Inhibition” value ([2]; CR845 10 mg/kg SC) of the same molecule?
The value was -10%.

What about the “IL-10 % Inhibition” value ([2]; CR845 10 mg/kg SC) of the same molecule?
Its value is 26%.

What about the “IL-12 (p40/p70) % Inhibition” value ([2]; CR845 10 mg/kg SC) of the same molecule?
Its value is 23* %.

And the “MCP-1 % Inhibition” value ([2]; CR845 10 mg/kg SC)?
The value was -11%.

What about the “MIP-1α % Inhibition” value ([2]; CR845 10 mg/kg SC) of the same molecule?
Its value is 19%.

What about the “MIP-1β % Inhibition” value ([2]; CR845 10 mg/kg SC) of the same molecule?
The value was 19* %.

And the “TNFα % Inhibition” value ([2]; CR845 10 mg/kg SC)?
Its value is 47* %.

What about the “minimum effective IV dose for reduction of carrageenan-induced paw swelling” value ([3]; IV 30 min prior to carrageenan, paw volume at 3.5 hr post-injection) of the same molecule?
The value was 0.3 mg/kg.

And the carrageenan-induced paw swelling ([3]; IV, 0.1, 0.3 or 1.0 mg/kg, vs. vehicle)?
Its carrageenan-induced paw swelling is “significantly reduces carrageenan-induced paw swelling”.

And the “serum TNF-alpha suppression” value [4]?
Its value is “dose-dependent suppression of TNF-alpha that is statistically significant”.

What about the “TNF-alpha release (CD-40/interferon-gamma stimulated release standardized to 100)” value (“TNF-alpha release” for short) ([5]; 0.1 nM) of the same molecule?
The value was 20.

What about the “TNF-alpha release” value ([5]; 0.3 nM) of the same molecule?
The value was -25.

How did the “IL-1α % Inhibition” value ([2]; Prednisolone 3 mg/kg SC) turn out when `C[C@]12C=CC(=O)C=C1CC[C@@H]1[C@@H]2[C@@H](O)C[C@@]2(C)[C@H]1CC[C@]2(O)C(=O)CO` [Prednisolone, prednisolone] was run?
Its value is 50* %.

What about the “IL-1β % Inhibition” value ([2]; Prednisolone 3 mg/kg SC) of the same molecule?
Its value is 39* %.

What about the “IL-2 % Inhibition” value ([2]; Prednisolone 3 mg/kg SC) of the same molecule?
Its value is 24* %.

And the “IL-4 % Inhibition” value ([2]; Prednisolone 3 mg/kg SC)?
Its value is 41* %.

And the “IL-6 % Inhibition” value ([2]; Prednisolone 3 mg/kg SC)?
The value was -2%.

What about the “IL-10 % Inhibition” value ([2]; Prednisolone 3 mg/kg SC) of the same molecule?
The value was 59* %.

And the “IL-12 (p40/p70) % Inhibition” value ([2]; Prednisolone 3 mg/kg SC)?
Its value is 45* %.

And the “MCP-1 % Inhibition” value ([2]; Prednisolone 3 mg/kg SC)?
The value was -14%.

And the “MIP-1α % Inhibition” value ([2]; Prednisolone 3 mg/kg SC)?
The value was 35* %.

What about the “MIP-1β % Inhibition” value ([2]; Prednisolone 3 mg/kg SC) of the same molecule?
The value was 19* %.

What about the “TNFα % Inhibition” value ([2]; Prednisolone 3 mg/kg SC) of the same molecule?
The value was 64* %.

How did the “TNF-alpha release” value ([5]; positive control, concentration not given) turn out when `CCCC1O[C@@H]2C[C@H]3[C@@H]4CCC5=CC(=O)C=C[C@]5(C)[C@H]4[C@@H](O)C[C@]3(C)[C@]2(C(=O)CO)O1` (stereo partly shown) [budesonide] was run?
The value was -25.

What does the source list for `Oc1ccc2c3c1O[C@H]1c4[nH]c5c(c4C[C@@]4(O)[C@@H](C2)N(CC2CC2)CC[C@]314)C[C@@]1(O)[C@H]2Cc3ccc(O)c4c3[C@@]1(CCN2CC1CC1)[C@H]5O4` [nor-BNI]?
G-CSF release [1, 7]: 1214 (29.9) pg/mL; IL-1 release [1, 7]: 39.9 (1.1) pg/mL; IL-6 release [1, 7]: 803.9 (0.6) pg/mL; IL-8 release [1, 7]: 1595 (13.3) pg/mL; TNF release [1, 7]: 7186 (174.8) pg/mL; effect of nor-BNI on the cytokine-reducing effect of CR845 ([1]; selective kappa opioid antagonist added to CR845): blocked
